Consider 9 molecules from patent US20110224213A1, “Use of Glutaric Acid Derivatives or the Pharmaceutically Acceptable Salts Thereof as Anti-Arrhythmic Agents” (priority 2008, published 2011).

The subject of series [1] is adrenal arrhythmia in mice. In kind it is in vivo.
Series [2] deals with aconitic arrhythmia in mice. Kind of series: animal or person. Type of series: in vivo. Particulars: per/os, mice. The method, then:
Arrhythmia was reproduced according to the method of Ju. I. Vikhlyayev and N. V. Kaverina (1958) [Kaverina N. V., Berdyaev S. Ju., Kuschuk E. P., Paskhina O. E. Methodical indications in respect to a study of the anti-arrhythmic activity of new pharmacological substances. Manual on experimental (pre-clinical) study of new pharmacological substances. Edited by V. P. Fisenko.—Moscow. 2000. Page 210]. Aconitine nitrate was administered to the animals in a dose of 50 μg/kg intravenously.
This model makes it possible to assess the scope of the therapeutic action of the presented compounds and the N-succinyl-D,L-tryptophane dipotassium salt. Assessment of the scope of the therapeutic action was carried out in accordance with the value of the anti-arrhythmic index (AAI), determined as the ratio LD50 upon the oral method of administering to ED50 on an aconitic model of arrhythmia.

Series [3] relates to occlusive arrhythmia in cats. Kind of series: Early occlusive arrhythmia in cats (coronary artery ligation).
The mark [4] stands for this setting: mice, dose 0.05 mg/kg, introduced internally.
Where [5] appears, read: mice, dose 0.5 mg/kg, introduced internally.

Counter-ions that a name gives are not always drawn. Like-named read-outs stand apart in the source and are kept apart here. Marks after values point to notes of the source that are not given here.

Regarding `O=C([O-])CCC(=O)NC(Cc1c[nH]c2ccccc12)C(=O)[O-].[K+].[K+]` (racemic) [N-succinyl-D,L-tryptophane dipotassium salt, reference compound], in series [1] (setting [4]), the “Animals lethal (%)” value is given as “(100%)”, the “Animals with AV blockage (%)” value was “(43%)”, the “Animals with ventricular arrhythmia (%)” value is “(43%)” and the “Lifetime” value is on record as 16 ± 4 min. Moreover, in series [1] (setting [4]), the “Number of animals in groups lethal” value stood at 14, the “Number of animals in groups with AV blockage” value (from here on “Number … with AV blockage”) is reported as 6* and the “Number of animals in groups with ventricular arrhythmia” value was 6*. For the same molecule, in series [1] (setting [5]), the “Animals lethal (%)” value is “(100%)”, the “Animals with AV blockage (%)” value is “(57%)”, the “Animals with ventricular arrhythmia (%)” value is given as “(43%)” and the “Lifetime” value is 16 ± 4 min. Besides, in series [1] (setting [5]), the “Number of animals in groups lethal” value is recorded as 14, the “Number … with AV blockage” value stood at 8 and the “Number of animals in groups with ventricular arrhythmia” value is 6*. In series [2] (dose of 50 mg/kg), the “animals died after administration of the substance” value stood at 50%. Also, the “test animals in which arrhythmia develops” value in series [2] (interval of doses 0.05-5 mg/kg) is 71-100%. Also, the “effect on experimental lethality” value in series [3] (23% lethality in the control) is on record as “prevented experimental lethality”. Further, in series [3] (dose 0.05 mg/kg, intravenously), the “Animals died in group” value was 0, the “Animals with ventricular arrhythmia (%)” value amounted to 50%, the “Number of animals with ventricular arrhythmia” value is 3 and the “Time of occurrence of arrhythmia” value came out at 19 ± 3 min. Besides, in series [3] (dose 0.5 mg/kg, intravenously), the “Animals died in group” value was 0, the “Animals with ventricular arrhythmia (%)” value came to 17%, the “Number of animals with ventricular arrhythmia” value was found to be 1 and the “Time of occurrence of arrhythmia” value was found to be 21 min. Further, in series [3] (dose of 0.05 mg/kg, intravenous), the “anti-arrhythmic effect” value was “did not demonstrate a reliable anti-arrhythmic effect”.
For the molecule `O=C(O)CCCC(=O)NCCc1c[nH]c2ccccc12` [Compound XIII mono-sodium salt], in series [1] (setting [4]), the “Animals lethal (%)” value is recorded as “(43%)”, the “Animals with AV blockage (%)” value was “(43%)”, the “Animals with ventricular arrhythmia (%)” value is on record as “(36%)” and the “Lifetime” value is recorded as 17 ± 4 min. In series [1] (setting [4]), the “Number of animals in groups lethal” value is given as 6*, the “Number … with AV blockage” value is reported as 6* and the “Number of animals in groups with ventricular arrhythmia” value is on record as 5*. In series [1] (setting [5]), the “Animals lethal (%)” value is listed as “(36%)”, the “Animals with AV blockage (%)” value was “(29%)”, the “Animals with ventricular arrhythmia (%)” value is on record as “(21%)” and the “Lifetime” value came to 28 ± 9 min. In series [1] (setting [5]), the “Number of animals in groups lethal” value is on record as 5*, the “Number … with AV blockage” value is given as 4* and the “Number of animals in groups with ventricular arrhythmia” value is listed as 3*.
As to `CC(C)NCC(O)COc1cccc2ccccc12` (centres unmarked) [Propranolol, propranolol, reference compound], in series [1] (mouse, in vivo, 0.1 mg/kg), the “Animals with AV blockage (%)” value is “(36%)”, the “Animals with ventricular arrhythmia (%)” value is “(29%)”, the “Lifetime” value worked out at 20 ± 4 min and the “Number … with AV blockage” value is given as 5*. The “Number of animals in groups with ventricular arrhythmia” value in series [1] (mouse, in vivo, 0.1 mg/kg) is 4*. In series [1] (mouse, in vivo, 0.5 mg/kg), the “Animals with AV blockage (%)” value is on record as “(29%)”, the “Animals with ventricular arrhythmia (%)” value is “(50%)”, the “Lifetime” value was determined as 23 ± 4 min and the “Number … with AV blockage” value is given as 4*. Further, in series [1] (mouse, in vivo, 0.5 mg/kg), the “Number of animals in groups with ventricular arrhythmia” value is listed as 7*. In series [3] (dose 1.0 mg/kg, intravenously), the “Animals died in group” value is given as 0, the “Animals with ventricular arrhythmia (%)” value was 28%, the “Number of animals with ventricular arrhythmia” value is given as 2 and the “Time of occurrence of arrhythmia” value is recorded as 24 ± 1 min.
With `O=C(O)CCCC(=O)N[C@@H](Cc1c[nH]c2ccccc12)C(=O)O` [Compound II mono-sodium salt, mono-sodium salt N^α-glutaryl-L-tryptophane], the “effect on lethality of the test animals” value in series [1] (mice, 0.05 and 0.5 mg/kg, introduced internally) is reported as “statistically reliably reduced the lethality”. For the same molecule, in series [1] (setting [4]), the “Animals lethal (%)” value was “(50%)”, the “Animals with AV blockage (%)” value is “(0%)”, the “Animals with ventricular arrhythmia (%)” value is given as “(0%)” and the “Lifetime” value is 22 ± 3.4 min. For the same molecule, in series [1] (setting [4]), the “Number of animals in groups lethal” value is 7*, the “Number … with AV blockage” value was 0* and the “Number of animals in groups with ventricular arrhythmia” value is given as 0*. Also, in series [1] (setting [5]), the “Animals lethal (%)” value is “(50%)”, the “Animals with AV blockage (%)” value was “(36%)”, the “Animals with ventricular arrhythmia (%)” value was “(0%)” and the “Lifetime” value stood at 19 ± 2.8 min. In series [1] (setting [5]), the “Number of animals in groups lethal” value is 7*, the “Number … with AV blockage” value is on record as 5* and the “Number of animals in groups with ventricular arrhythmia” value is 0*. Besides, the “effect on ventricular ectopic complexes” value in series [1] (mice, introduced internally) is “elimination of the ventricular ectopic complexes in all of the test animals”.
As to `CCCCc1oc2ccccc2c1C(=O)c1cc(I)c(OCCN(CC)CC)c(I)c1` [Cordaron, amiodaron, reference compound], in series [3] (dose 1.0 mg/kg, intravenously), the “Animals died in group” value amounted to 0, the “Animals with ventricular arrhythmia (%)” value is 40%, the “Number of animals with ventricular arrhythmia” value is recorded as 4 and the “Time of occurrence of arrhythmia” value is listed as 21 ± 6 min.
As to `O=C(O)CCCC(=O)NCCc1c[nH]cn1` [Compound IV, glutaryl histamine], in series [1] (setting [4]), the “Animals lethal (%)” value is recorded as “(79%)”, the “Animals with AV blockage (%)” value was “(21%)”, the “Animals with ventricular arrhythmia (%)” value is “(29%)” and the “Lifetime” value is on record as 24 ± 3 min. In series [1] (setting [4]), the “Number of animals in groups lethal” value turned out to be 11, the “Number … with AV blockage” value was 3* and the “Number of animals in groups with ventricular arrhythmia” value is recorded as 4*. In addition, in series [1] (setting [5]), the “Animals lethal (%)” value was “(100%)”, the “Animals with AV blockage (%)” value is given as “(29%)”, the “Animals with ventricular arrhythmia (%)” value is “(14%)” and the “Lifetime” value was determined as 18 ± 0.8 min. In series [1] (setting [5]), the “Number of animals in groups lethal” value is reported as 14, the “Number … with AV blockage” value is given as 4* and the “Number of animals in groups with ventricular arrhythmia” value is on record as 2*. The “effect on life span of the test animals” value in series [1] (mouse, in vivo, 0.05 mg/kg) is “effectively increased the life span”.
As for `O=C(O)CCCC(=O)NCCc1ccncc1` [Compound IX], in series [1] (setting [4]), the “Animals lethal (%)” value was “(80%)”, the “Animals with AV blockage (%)” value is “(100%)”, the “Animals with ventricular arrhythmia (%)” value is reported as “(70%)” and the “Lifetime” value was found to be 21 ± 6 min. In series [1] (setting [4]), the “Number of animals in groups lethal” value worked out at 8, the “Number … with AV blockage” value is on record as 10 and the “Number of animals in groups with ventricular arrhythmia” value is recorded as 7. Moreover, in series [1] (setting [5]), the “Animals lethal (%)” value is “(60%)”, the “Animals with AV blockage (%)” value is recorded as “(50%)”, the “Animals with ventricular arrhythmia (%)” value is “(20%)” and the “Lifetime” value is 32 ± 4 min. Also, in series [1] (setting [5]), the “Number of animals in groups lethal” value is 6*, the “Number … with AV blockage” value was determined as 5 and the “Number of animals in groups with ventricular arrhythmia” value is reported as 2*.
On to `O=C(O)CCCC(=O)NCCc1ccccn1` [Compound X], for which, in series [1] (setting [4]), the “Animals lethal (%)” value is reported as “(70%)”, the “Animals with AV blockage (%)” value is “(70%)”, the “Animals with ventricular arrhythmia (%)” value is “(60%)” and the “Lifetime” value was determined as 13 ± 4 min. In addition, in series [1] (setting [4]), the “Number of animals in groups lethal” value was 7*, the “Number … with AV blockage” value stood at 7 and the “Number of animals in groups with ventricular arrhythmia” value is recorded as 6*. In series [1] (setting [5]), the “Animals lethal (%)” value is “(70%)”, the “Animals with AV blockage (%)” value is “(60%)”, the “Animals with ventricular arrhythmia (%)” value was “(30%)” and the “Lifetime” value came to 27 ± 6 min. Also, in series [1] (setting [5]), the “Number of animals in groups lethal” value is 7*, the “Number … with AV blockage” value is 6 and the “Number of animals in groups with ventricular arrhythmia” value is 3*.
For `O=C(O)CCCC(=O)N[C@@H](Cc1c[nH]c2ccccc12)C(=O)O` [Compound II, N^α-glutaryl-L-tryptophane], in series [1] (setting [4]), the “Animals lethal (%)” value is listed as “(50%)”, the “Animals with AV blockage (%)” value is “(0%)”, the “Animals with ventricular arrhythmia (%)” value is on record as “(0%)” and the “Lifetime” value is reported as 22 ± 3.4 min. In series [1] (setting [4]), the “Number of animals in groups lethal” value is reported as 7*, the “Number … with AV blockage” value is 0* and the “Number of animals in groups with ventricular arrhythmia” value was 0*. In series [1] (setting [5]), the “Animals lethal (%)” value is “(50%)”, the “Animals with AV blockage (%)” value is “(29%)”, the “Animals with ventricular arrhythmia (%)” value is “(0%)” and the “Lifetime” value came to 19 ± 2.8 min. Besides, in series [1] (setting [5]), the “Number of animals in groups lethal” value is 7*, the “Number … with AV blockage” value is 4* and the “Number of animals in groups with ventricular arrhythmia” value is given as 0*. In addition, in series [3] (dose 0.05 mg/kg, intravenously), the “Animals died in group” value amounted to 1, the “Animals died in group (%)” value is recorded as 14%, the “Animals with ventricular arrhythmia (%)” value is reported as 86% and the “Number of animals with ventricular arrhythmia” value came to 6. For the same molecule, the “Time of occurrence of arrhythmia” value in series [3] (dose 0.05 mg/kg, intravenously) was 17 ± 2 min. In addition, in series [3] (dose 0.5 mg/kg, intravenously), the “Animals died in group” value is 0, the “Animals with ventricular arrhythmia (%)” value was 29%, the “Number of animals with ventricular arrhythmia” value was 2 and the “Time of occurrence of arrhythmia” value was 17 to 20 min.
